The record followed here is PMC3486420, “In Vitro and In Vivo Characterizations of Chiglitazar, a Newly Identified PPAR Pan-Agonist” (PPAR Research, 2012).

For data set [1], the system named is db/db mice. Kind of data set: Oral treatment of diabetic db/db mice (glucose, insulin, IPGTT, body and fat pad weight). The format is in vivo, mouse. The text has this: Male db/db mice (BKS.Cg-m +/+ LEPR^db) in 6-7 weeks were purchased from The Jackson Laboratory (Bar Harbor, ME, USA). Male KKAy and C57BL/6J mice in 8–10 weeks were obtained from the Institute of Animal Science, Chinese Academy of Medical Sciences and Peking Union Medical College (Beijing, China). Animals were randomly sorted into different treatment groups (8–10 per group). […] Plasma glucose levels were examined at various time points by Accu-Chek Advantage II Glucose Strips (Roche Diagnostics, Basel, Switzerland) and measured by Accu-Chek Advantage (Roche Diagnostics). Animals were sacrificed 24 h after the last dosing and abdominal fat pad, liver, and skeletal muscle from KKAy mice and abdominal fat pad from db/db mice were taken for gene expression analysis.
For intraperitoneal glucose tolerance test (IPGTT), db/db mice dosed for 14 days were fasted overnight, followed by an intraperitoneal injection of glucose (2 g kg^−1). Blood samples were taken for measurement of plasma glucose before and 30, 60, and 120 min after the glucose load. The area under curves (AUC) was calculated to evaluate the IPGTT results. To determine plasma insulin concentrations, blood samples were taken from db/db mice dosed with different reagents or vehicle for 0, 3, 6, and 9 d, and insulin levels were measured by Insulin ELISA Kit (Roche Diagnostics) following the instructions from the manufacture.
Figure 2 In vivo effects on blood glucose control and insulin sensitization of chiglitazar. Male db/db (a, c and d) and male KKAy mice (b) were treated with vehicle (Ctrl), rosiglitazone (Ros), or chiglitazar (Chi) at the indicated doses for various days. Plasma glucose (a and b) and insulin (c) levels were measured at the indicated time points. […] Data are expressed as mean ± SE.
Figure 4 Influence in body and abdominal fat pad weights of chiglitazar. […] Changes in body weight were evaluated at the indicated days (b), and the fat pads were weighed from the scarified animals at day 15 (c). ^# P < 0.05 compared with day 0, and *P < 0.05 compared with Ctrl. n = 8 per group for KKAy, and n = 10 per group for db/db. Data are expressed as mean ± SE.

Data set [2] in a line: Tissue distribution of 3H-chiglitazar in rats. The format is in vivo, rat. The following applies: male Wistar rats, single oral dose 12.5 mg kg^−1 3H-labelled, radioactivity AUC0–24. How it is done:
^3H-chiglitazar was synthesized and provided by the Beijing Institute of Atom Energy with specific activity of 15 Ci mmol^−1 and purity >97%. Tissue distribution of ^3H-chiglitazar in rats was evaluated based on the methods described previously. Briefly, male Wistar rats (~220 g in body weight, 12-week old) were randomly divided into 4 groups (5 per group). After fasted overnight, rats were orally administered with single dose of 12.5 mg kg^−1 of ^3H-chiglitazar (radiation dose 31.7 MBq kg^−1). Rats in different groups were sacrificed at 1.5, 4, 8, and 24 h after dosing. Blood (5–9 mL) was collected via cardiac puncture at the time of sacrifice. […] 1 mL of scintillation fluid was added to each well, and radioactivity was measured by a scintillation counter (Perkin Elmer, Waltham, MA, USA).
Figure 5 Influence on heart weight and tissue distribution of chiglitazar in rats. […] 24 h after the last dosing, animals were sacrificed and the heart weight was evaluated. *P < 0.05 compared with control; n = 5 per group. […] Rats were sacrificed at 1.5, 4, 8, and 24 h after treatment (n = 5 per time point), and various tissues/organs as indicated were taken for radioactivity measurement. The accumulated area under curves through 0 to 24 h (AUC0–24) was calculated based on individual tissue distribution measured at each time point. […] Data are expressed as mean ± SE.

The subject of data set [3] is db/db mice. Kind of data set: Gene expression by RT-PCR in tissues of treated db/db mice. The format is in vivo, mouse. Particulars: 14 days oral, chiglitazar 20 mg kg^−1 compared with rosiglitazone 5 mg kg^−1. The method, then: Total RNA was extracted from cells or tissues with an RNeasy minikit (Qiagen, Valencia, CA, USA). The first-strand cDNA was synthesized using the oligo(dT) primers, followed by using SuperScript II reverse transcriptase (Invitrogen) according to the manufacturer's instructions. The PCR amplifications were performed in 10 μL of reaction mixture volume containing 0.8 μL of cDNA, 10 mM Tris-HCl (pH 8.3), 50 mM KCl, 1.5 mM MgCl2, 0.1% Triton X-100, 0.2 mM deoxynucleotide triphosphates, 0.4 μM primers, and 0.25 U of Taq polymerase (TaKaRa Biotechnology Co., Ltd, China). Taq DNA polymerase was added to each tube after a treatment of 2 min at 94°C. This was followed by 22–30 cycles of denaturation (23 s at 94°C), annealing (20 s at 55°C), extension (30 s at 72°C), and a final extension step of 2 min. PCR products were analyzed by electrophoresis on a 1.5% agarose gel stained with ethidium bromide.
Male db/db mice (BKS.Cg-m +/+ LEPR^db) in 6-7 weeks were purchased from The Jackson Laboratory (Bar Harbor, ME, USA). Male KKAy and C57BL/6J mice in 8–10 weeks were obtained from the Institute of Animal Science, Chinese Academy of Medical Sciences and Peking Union Medical College (Beijing, China). […] Plasma glucose levels were examined at various time points by Accu-Chek Advantage II Glucose Strips (Roche Diagnostics, Basel, Switzerland) and measured by Accu-Chek Advantage (Roche Diagnostics). […]

The subject of data set [4] is Wistar rats. Kind of data set: Influence in heart weight of Wistar rats, 6-month oral dosing. Particulars: for Increase in heart weight: 135 mg kg^−1 (~900 mg/m^2) oral daily, 6 months. The format is in vivo, rat. How it is done:
Male and female Wistar rats of 6-week old were randomly divided into 4 groups, 5 for each male and female per group. Animals in different groups were orally treated daily with chiglitazar suspended in water at the doses of 15, 45, and 135 mg kg^−1, or vehicle (water), for 6 months. 24 h after the last treatment, animals were sacrificed and the weight of heart from individual animals was weighed.
Figure 5 Influence on heart weight and tissue distribution of chiglitazar in rats. (a) Wistar rats were orally administered daily with chiglitazar at the dose of 15, 45 and 135 mg kg^−1 for 6 months. 24 h after the last dosing, animals were sacrificed and the heart weight was evaluated. *P < 0.05 compared with control; n = 5 per group. (b) Male Wistar rats were orally administered with a single dose of ^3H-chiglitazar at 12.5 mg kg^−1 (radiation dose 31.7 MBq kg^−1). Rats were sacrificed at 1.5, 4, 8, and 24 h after treatment (n = 5 per time point), and various tissues/organs as indicated were taken for radioactivity measurement. The accumulated area under curves through 0 to 24 h (AUC0–24) was calculated based on individual tissue distribution measured at each time point. (c) The time course distribution of chiglitazar in different tissues at individual time point (1.5, 4, 8, 24 h). Data are expressed as mean ± SE.

Data set [5] has as its system beagle dogs. In words: Heart weight in beagle dogs, chronic treatment. The format is in vivo, dog. Particulars: same regime (6 months), 54 mg kg^−1 (~1000 mg/m^2), data not shown.

`O=C(c1ccc(F)cc1)c1ccccc1NC(Cc1ccc(OCCn2c3ccccc3c3ccccc32)cc1)C(=O)O` (centres unmarked) [Chi, 2-[(2-(4-fluorobenzoyl)phenyl)amino]-3-[4-(2-carbazolylethoxy)-phenyl]-propionic acid]: in data set [1] (db/db mice, 20 mg kg^−1 oral daily, 14 days), the “Glucose tolerance (IPGTT)” value was “increased”. The Body weight entry in data set [1] (db/db mice, 5, 10 and 20 mg kg^−1 oral daily, 14 days) is given as “dose-dependent weight gain”. The “Abdominal fat pad weights” value in data set [1] (db/db mice, chiglitazar 20 mg kg^−1 vs rosiglitazone 5 mg kg^−1, 14 days) was “less increase”. Besides, the “BG (blood glucose) levels” value in data set [1] (db/db mice, oral daily, 5 to 20 mg kg^−1, 14 days) was “significantly lowered”. Further, the Plasma insulin concentrations entry in data set [1] (db/db mice, oral daily, different doses, compared with vehicle control) is recorded as “markedly decreased”. For the same molecule, the “Tissue distribution: level in kidney, adipose tissue and heart” value in data set [2] was “low levels”. For the same molecule, in data set [2], the “Tissue distribution: level in plasma, liver and pancreas” value is listed as “high levels”. For the same molecule, the “Expression of UCP1 in adipose tissue” value in data set [3] was “greater degree of upregulation”. Also, the “No-effect dose on heart weight (45 mg kg^−1) relative to optimal efficacy dose (10 mg kg^−1)” value in data set [4] (Wistar rats) was “about 4.5 times”. Besides, in data set [4] (Wistar rats, 135 mg kg^−1, 6 months (data not shown)), the “Microscopical examination of weight-increased hearts” value was “minimal to mild myocardial hypertrophy”. The Heart weight entry was “did not increase” in data set [4] (Wistar rats, oral daily 6 months, doses as high as 45 mg kg^−1 (~300 mg/m^2)) and “did not induce significant increase” in data set [5]. The results for the “Increase in heart weight” value in data set [4] (female Wistar rats) and in data set [4] (male Wistar rats) were “about 20%” and roughly 12%, respectively.
